The text below walks through data of PubChem BioAssay AID2384 (Southern Research Specialized Biocontainment Screening …, 2010).

The assay concerns S. typhi GFP reporter counter-screen, fluorescence, 4 h. Briefly: inhibitors in S. typhi counter-screen strain, dose response, counter-screen for PhoP regulon inhibitor project, fluorescence, 4 h (AID 2384). A general note: Counterscreens check selectivity or assay interference.

The structures appear in SMILES notation.

On to `Cc1ncc(CC(=O)n2cc(C(=O)c3cc(Cl)ccc3O)cn2)s1`, for which the concentration for half-maximal inhibition (IC50) is 82.9 µM.

With `Clc1ccc(CN2CCc3c([nH]c4ccccc34)C2)cc1Cl`, the IC50 is 36.2 µM. Next, `Cc1c(N=Cc2cc(Br)cc(Br)c2O)cccc1C(=O)O`: 39.5 µM. Turning to `Cc1ccc(NC(=O)CNCc2ccccc2)cc1Br`, the 50% inhibitory concentration (IC50) is 43 µM.

As for `Oc1ccc(CN2CCN(c3ccccc3)CC2)c2cccnc12`, the IC50 is 99.6 µM. In the case of `CCCCCCCCCCOC(=O)Cn1c(COc2cccc(OC)c2)[n+](C)c2ccccc21` it was 10.2 µM; in that of `CCOC(=O)N/N=C(/C)c1ccc([N+](=O)[O-])o1`, 73.6 µM. Turning to `O=[N+]([O-])c1ccc(O)c(/C=N/Nc2ccccn2)c1`, the half-inhibitory concentration (IC50) was 9.31 µM. Consider `O=C(CNCCC1=CCCCC1)Nc1ccc(N2CCCCCC2)cc1`, for which the IC50 is 24.7 µM. Take `O=C(O)c1cc2c(cn1)[nH]c1ccccc12`: the IC50 is 92.6 µM. Regarding `CN(C)C1C(=O)C(C(N)=O)=C(O)C2(O)C(=O)C3=C(O)c4c(O)cccc4C(C)(O)C3CC12` (stereo unspecified), the IC50 was 1.71 µM. On to `CN(C)CCCN1c2ccccc2Sc2ccc(C(F)(F)F)cc21`, for which the IC50 was 103 µM. With `CCCCc1c(O)nc(SCC(=O)Nc2ccc3c(c2)CCC3)[nH]c1=O`, the half-maximal inhibitory concentration (IC50) was 112 µM.

For the compound `COc1cc([N+](=O)[O-])cc(/C=N/NC(=O)C(O)(c2ccccc2)c2ccccc2)c1O`, the half-inhibitory concentration (IC50) was 80 µM.

As to `CO[C@@]1(NC(=O)C2SC(=C(C(N)=O)C(=O)O)S2)C(=O)N2C(C(=O)O)=C(CSc3nnnn3C)CS[C@@H]21` (stereo partly specified), the IC50 is 10.3 µM.

For the compound `Cc1ccc(Nc2cc(C)c3c(O)cccc3n2)cc1C`, the concentration for half-maximal inhibition (IC50) was 11.7 µM. Consider `O=C1OCCN1/N=C/c1ccc([N+](=O)[O-])o1`, for which the IC50 is 28.2 µM.

With `CNC(=S)N1CCN(c2c(F)cc3c(=O)c(C(=O)O)cn(C4CC4)c3c2OC)CC1C` (stereo unspecified), the IC50 is 48.2 µM. In the case of `O=C(CN1C2=NCCCN2c2ccccc21)c1ccc2c(c1)OCO2` it was 126 µM.

In the case of `CSc1ccc2c(c1)C(N1CCN(C)CC1)Cc1ccccc1S2` (stereo unspecified), the IC50 was 27.5 µM.

For `O=C(/C=C/c1ccccc1)c1cc(Br)ccc(=O)c1O`, the 50% inhibitory concentration (IC50) was 21.8 µM. Next, `O=C(c1ccccc1)c1c2c(cc3sc4ccccc4[n+]13)-c1cccc3cccc-2c13`: 55.4 µM; `Cc1ccc(-c2csc(N=C(N)N)n2)c(C)c1`: 46.3 µM. Take `CCOc1ccc(Nc2nc(N)c3ccccc3n2)cc1`: the IC50 was 44.4 µM. Next, `COc1ccc(NC(=O)c2[nH]ncc2[N+](=O)[O-])cc1`: 133 µM; `Oc1c(Cl)cc(CN2CCCCC2)c2cccnc12`: 9.15 µM. On to `CC(Nc1nc(N2CCCC2)nc2ccccc12)c1ccccc1` (stereo unspecified), for which the 50% inhibitory concentration (IC50) is 76 µM.

Turning to `CCCCCOc1ccc(CSC2=NCCN2)cc1[N+](=O)[O-]`, the IC50 was 32 µM. In the case of `CCCOc1ccc(C(=O)NNC(=S)NC(=O)c2ccco2)cc1`, the IC50 was 36.8 µM.

For `Cc1ccccc1C(=O)Nc1cccc(C(=O)N/N=C/c2cc(Cl)cc([N+](=O)[O-])c2O)c1`, the IC50 is 32.9 µM. `Cn1c(-c2ccc3c(c2)OCO3)cnc1NCc1ccc(Cl)cc1`: the IC50 was 76.3 µM.

Turning to `O=C1c2ccccc2NC(c2ccc(-c3ccc(Br)cc3)o2)N1O` (stereo unspecified), the 50% inhibitory concentration (IC50) was 25.5 µM. Consider `CC12CN3CC(C)(CN(C1)C3c1ccc(Br)cc1O)C2` (stereo unspecified), for which the 50% inhibitory concentration (IC50) is 143 µM.

Turning to `O=[N+]([O-])/C=C/c1cc2ccccc2[nH]1`, the concentration for half-maximal inhibition (IC50) was 36.9 µM. With `O=C(N/N=C/c1cc(Br)cc(Br)c1O)c1ccncc1`, the IC50 was 45.3 µM. Turning to `Fc1ccc(Nc2nnc(C(F)(F)F)s2)cc1Cl`, the concentration for half-maximal inhibition (IC50) was 37.8 µM.

With `CCCCCCCCCCCCCCCC[N+](C)(C)C`, the IC50 is 19.3 µM. Next, `CCn1cc(C(=O)O)c(=O)c2cc(F)c(N3CCN(C(=S)Nc4ccc(OC)cc4)CC3)cc21`: 35.9 µM; `C1=C(CCNCc2ccccc2)CCCC1`: 16.8 µM. `COc1c(N2CCNC(C)C2)c(F)cc2c(=O)c(C(=O)O)cn(C3CC3)c12` (stereo unspecified): the half-maximal inhibitory concentration (IC50) is 1.1 µM. Next, `C/C(=C\C(=O)OCCCCCCCCC(=O)O)C[C@@H]1OC[C@H](C[C@@H]2O[C@H]2[C@@H](C)[C@H](C)O)[C@@H](O)[C@H]1O`: 38.4 µM; `O=C1CSC(=S)N1c1cccnc1`: 78.8 µM. Take `Cc1ccc2nc(NCc3ccccc3)[nH]c2c1`: the IC50 is 35.2 µM. With `Cc1ccc(C(=O)N/N=C\c2sccc2C)cn1`, the concentration for half-maximal inhibition (IC50) was 136 µM. Next, `CC(=O)Nc1ccc(S(=O)(=O)NNc2cccc(C)c2)cc1`: 27.5 µM. Next, `COc1ccc(CNCC(O)COc2ccc(C)cc2[N+](=O)[O-])cc1` (stereo unspecified): 128 µM; `O=C(N=Nc1c(O)[nH]c2ccccc12)c1cc(-c2cccs2)[nH]n1`: 81.4 µM; `O=C(N/N=C/c1ccc(N2CCCC2)c([N+](=O)[O-])c1)c1cccnc1`: 104 µM. As for `CN1CCN(C2=Cc3ccccc3Sc3cc(F)c(Cl)cc32)CC1`, the concentration for half-maximal inhibition (IC50) is 27 µM. Consider `O=c1[nH]c2ccccc2n2c(=S)[nH]nc12`, for which the IC50 was 147 µM. In the case of `NC(N)=N/N=C/c1ccc(OCc2ccc(Cl)cc2Cl)cc1`, the IC50 was 10.3 µM. Consider `Cc1cc(CSC(=N)N)c(CSC(=N)N)cc1C`, for which the IC50 is 50.1 µM.

For the compound `CCOc1ccc(/C=N/NC(=O)c2[nH]ncc2Br)c(O)c1`, the IC50 is 43.7 µM. On to `CC[C@@H](C)[C@H](CNC)NC[C@@H](Cc1cccc2ccccc12)NCCc1cccc(C(F)(F)F)c1`, for which the IC50 was 18.8 µM. Next, `COC(=O)C1C(O)C(C)C(O)C(C)/C=C\C=C(/C)C(=O)Nc2c(C)c(OC(C)=O)c3c(c2O)C(=O)C(C)=C2OCOC(=C23)/C(C)=C/C(C)(O)C(O)C(C)C1O` (stereo unspecified): 15.2 µM; `CCCCCSc1cc(OC)c(CCNC)cc1OC`: 52.2 µM. In the case of `CCCCCCCCC1=NCCc2c1[nH]c1ccccc21`, the IC50 was 78.4 µM.

Consider `O=C(Cn1cnc2ccccc21)Nc1ccc(SC(F)F)cc1`, for which the IC50 was 143 µM. Regarding `Nc1nonc1C(=O)N/N=C/c1cc(Br)ccc1O`, the IC50 is 14 µM. Take `O=[N+]([O-])c1cc(/C=N/Nc2nc3ccccc3[nH]2)c(O)cc1O`: the IC50 is 17.8 µM. Regarding `CC(C)[C@@H]1CC[C@@H](C)C[C@H]1OC(=O)C[n+]1cc(-c2ccc(Cl)cc2)n2c1CCCCC2`, the half-maximal inhibitory concentration (IC50) was 74.9 µM.

Turning to `O=C(N/N=C/c1c(O)ccc2ccccc12)c1ccc(CO)nc1`, the IC50 is 81.7 µM. Turning to `CCCCCCCCCCCCCCCC[N+](C)(C)CCN(Cc1ccc(OC)cc1)c1ncccn1`, the IC50 was 19.1 µM. In the case of `O=[N+]([O-])c1cc([N+](=O)[O-])c2cccnc2c1Oc1ccccc1O`, the IC50 is 41.7 µM. For `CCCCc1ccc2[nH]cc(CCN)c2c1`, the concentration for half-maximal inhibition (IC50) is 77 µM. For the compound `CCCCCc1ccc(OCCCC[n+]2cccc(C)c2)c(CCCCC)c1`, the IC50 was 64.9 µM.

Consider `C#CCOCCOCCOCCNc1nc(N2CCN(C(=O)CCCCCCCCCCNC(=O)[C@H]([C@@H](C)CC)n3cc(CCCCCN)nn3)CC2)nc(N2CCN(C(=O)CCCCCCCCCCNC(=O)[C@H]([C@@H](C)CC)n3cc(CCCCN=C(N)N)nn3)CC2)n1`, for which the 50% inhibitory concentration (IC50) was 25 µM. Turning to `CNC(CC(=O)c1ccc([N+](=O)[O-])cc1)C(Cl)(Cl)Cl` (stereo unspecified), the concentration for half-maximal inhibition (IC50) was 82.7 µM. In the case of `O=C1C=C(Nc2ccccc2O)c2ccccc2C1=O` it was 101 µM; in that of `CN1CCN(C(c2ccc(Br)cc2)c2cc(Cl)c3cccnc3c2O)CC1` (stereo unspecified), 35.4 µM. In the case of `c1ccc(CN2CCC(Nc3nc(-c4ccccc4)nc4ccccc34)CC2)cc1`, the IC50 is 38 µM.

The term IC50 denotes the concentration that gives 50% inhibition.
